Data set [1] has as its target T1, Dopamine D2 receptor (hD2L) (Homo sapiens, UniProt P14416).
T1 construct: expressed in transfected cells; host or cells: CHO cells (CHO-hD2L)
The data set is described as follows: Dopamine D2 Receptor Binding Assay ([3H]spiperone, CHO-hD2L membranes). The conditions noted are these: [3H]spiperone 0.4 nM, membrane preparation from CHO-hD2L cells. An excerpt: The ability of the novel compounds of this invention to bind to the dopamine D2 receptor can be determined using conventional radioligand receptor binding assays. All receptors can be heterologously expressed in cell lines and binding assays can be conducted in membrane preparations from the cell lines using procedures outlined below. IC50 concentrations can be determined by nonlinear regression of concentration-dependent reduction in specific binding. The Cheng-Prussoff equation can be used to convert the IC50 to Ki concentrations.
[^3H]Spiperone binding to a membrane preparation from CHO-hD2L cells was carried out in 250 μl of 50 mM Tris-HCl buffer containing 100 mM NaCl, 1 mM MgCl2 and 1% DMSO at pH 7.4. Duplicate samples containing (in order of addition) the test compounds, 0.4 nM [^3H]spiperone and approximately 12 μg protein were incubated for 120 minutes at room temperature. Bound radioligand was separated by rapid filtration under reduced pressure through Whatman GF/B glass fiber filters previously treated with 0.3% polyethyleneimine. Radioactivity retained on the filter is determined by liquid scintillation spectrophotometry.

pKi: −log10 of the molar value. Counter-ions that a name gives are not always drawn.

T1 sequence (P14416 whole entry): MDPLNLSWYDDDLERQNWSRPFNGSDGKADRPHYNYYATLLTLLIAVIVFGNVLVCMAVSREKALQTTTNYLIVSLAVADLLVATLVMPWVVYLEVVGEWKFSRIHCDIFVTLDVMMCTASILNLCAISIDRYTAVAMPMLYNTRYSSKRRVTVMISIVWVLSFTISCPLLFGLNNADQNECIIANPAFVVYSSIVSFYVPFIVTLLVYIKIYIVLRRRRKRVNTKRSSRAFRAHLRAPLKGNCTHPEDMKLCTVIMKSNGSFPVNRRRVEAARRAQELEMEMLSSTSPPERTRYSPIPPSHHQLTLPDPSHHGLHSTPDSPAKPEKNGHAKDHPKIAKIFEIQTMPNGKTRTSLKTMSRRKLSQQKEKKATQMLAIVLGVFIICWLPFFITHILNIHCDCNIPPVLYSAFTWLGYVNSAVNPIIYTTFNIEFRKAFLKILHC

What is called melting point is the temperature of the solid-liquid transition. `O=C1NCCc2ccc(OCCCCN3CCN(c4cccc(Cl)c4Cl)CC3)nc2N1` (as salt: HCl) [Example 14, 2-{4-[4-(2,3-Dichloro-phenyl)-piperazin-1-yl]-butoxy}-5,6,7,9-tetrahydro-1,7,9-triaza-benzocyclohepten-8-one] registered a melting point of 197 to 199 °C. Compound `O=C1NCCc2ccc(OCCCCN3CCN(c4cccc5ccccc45)CC3)nc2N1` (as salt: HCl) [Example 15, 2-[4-(4-Naphthalen-1-yl-piperazin-1-yl)-butoxy]-5,6,7,9-tetrahydro-1,7,9-triaza-benzocyclohepten-8-one] returned a melting point of 188 to 190 °C. The same measure, in the same setting: next, `O=C1NCCc2ccc(OCCCCN3CCN(c4cccc5c4CCCC5)CC3)nc2N1` (as salt: HCl) [Example 16, 2-{4-[4-(5,6,7,8-Tetrahydro-naphthalen-1-yl)-piperazin-1-yl]-butoxy}-5,6,7,9-tetrahydro-1,7,9-triaza-benzocyclohepten-8-one]: 185 to 186 °C; `O=C1NCCc2ccc(OCCCCN3CCN(c4cccc5c4OCCC5)CC3)nc2N1` (as salt: HCl) [Example 17, 2-[4-(4-Chroman-8-yl-piperazin-1-yl)-butoxy]-5,6,7,9-tetrahydro-1,7,9-triaza-benzocyclohepten-8-one]: 154 to 156 °C. `O=C1NCCc2ccc(OCCCCN3CCN(c4cccc5ccc(F)cc45)CC3)nc2N1` (as salt: HCl) [Example 18, 2-{4-[4-(7-Fluoro-naphthalen-1-yl)-piperazin-1-yl]-butoxy}-5,6,7,9-tetrahydro-1,7,9-triaza-benzocyclohepten-8-one] displayed a melting point of 234 °C. The pKi is the Ki on a negative log10 scale, so that one unit is a factor of ten. A high value points to a low Ki. `O=C1NCCc2ccc(OCCCCN3CCN(c4cccc5c4CCC5)CC3)nc2N1` [Example 13, 2-[4-(4-Indan-4-yl-piperazin-1-yl)-butoxy]-5,6,7,9-tetrahydro-1,7,9-triaza-benzocyclohepten-8-one] had a melting point of 70 to 72 °C. In data set [1], the pKi was 9.23.

The compound `O=C1NCCc2ccc(OCCCCN3CCN(c4cccc5c4OCC5)CC3)nc2N1` [Example 19, 2-{4-[4-(2,3-Dihydro-benzofuran-7-yl)-piperazin-1-yl]-butoxy}-5,6,7,9-tetrahydro-1,7,9-triaza-benzocyclohepten-8-one] displayed a melting point of 72 to 73 °C. In addition, the pKi in data set [1] is 9.40. Take `O=C1NCCc2ccc(OCCCCN3CCN(c4cccc5c4OCCCO5)CC3)nc2N1` [Example 20, 2-{4-[4-(3,4-Dihydro-2H-benzo[b][1,4]dioxepin-6-yl)-piperazin-1-yl]-butoxy}-5,6,7,9-tetrahydro-1,7,9-triaza-benzocyclohepten-8-one]: the melting point was 78 to 79 °C. In data set [1], the pKi was 9.00. Consider `CN1CCc2ccc(OCCCCN3CCN(c4cccc(Cl)c4Cl)CC3)cc2NC1=O` [Example 25, 8-{4-[4-(2,3-Dichlorophenyl)piperazin-1-yl]butoxy}-3-methyl-1,3,4,5-tetrahydro-benzo[d][1,3]diazepin-2-one], for which the melting point was 139 to 140 °C.

As to `O=C1NCCc2ccc(OCCCN3CCN(c4cccc(Cl)c4Cl)CC3)cc2N1` [Example 28, 8-{3-[4-(2,3-Dichlorophenyl)piperazin-1-yl]propoxy}-1,3,4,5-tetrahydrobenzo[d][1,3]diazepin-2-one], the melting point lay within 183 to 184 °C. On the same count and under the same terms, next, `O=C1NCCc2ccc(OCCCCN3CCN(c4cccc(Cl)c4Cl)CC3)cc2N1` [Example 29, 8-{4-[4-(2,3-Dichlorophenyl)piperazin-1-yl]butoxy}-1,3,4,5-tetrahydrobenzo[d][1,3]diazepin-2-one]: 185 to 186 °C. `O=C1NCCc2ccc(OCCCCN3CCN(c4cccc(C5CC5)n4)CC3)cc2N1` [Example 37] came in with a melting point of 155 to 156 °C. Moreover, the pKi in data set [1] was 8.74. `O=C1NCCc2ccc(OCCCCN3CCN(c4cccc5nsnc45)CC3)cc2N1` [Example 39, 8-{4-[4-(2,1,3-benzothiadiazol-4-yl)piperazin-1-yl]butoxy}-1,3,4,5-tetrahydro-2H-1,3-benzodiazepin-2-one] gave a pKi in data set [1] of 8.59. Turning to `O=C1NCCc2ccc(OCCCCN3CCN(c4cccc5c(F)cccc45)CC3)cc2N1` [Example 40, 8-{4-[4-(5-Fluoro-naphthalen-1-yl)-piperazin-1-yl]-butoxy}-1,3,4,5-tetrahydro-benzo[d][1,3]diazepin-2-one], the pKi in data set [1] is 7.94. For `COc1ccc2cccc(N3CCN(CCCOc4ccc5c(c4)NC(=O)NCC5)CC3)c2n1` [Example 41, 8-{3-[4-(2-Methoxy-quinolin-8-yl)-piperazin-1-yl]-propoxy}-1,3,4,5-tetrahydro-benzo[d][1,3]diazepin-2-one], the pKi in data set [1] was 8.98.

For the compound `O=C1NCCc2ccc(OCCCCN3CCN(c4cccc5cccc(F)c45)CC3)cc2N1` [Example 42, 8-{4-[4-(8-Fluoro-naphthalen-1-yl)-piperazin-1-yl]-butoxy}-1,3,4,5-tetrahydro-benzo[d][1,3]diazepin-2-one], the pKi in data set [1] is 8.63.

For `O=C1NCCc2ccc(OCCCN3CCN(c4cccc5ccccc45)CC3)cc2N1` [Example 43, 8-[3-(4-Naphthalen-1-yl-piperazin-1-yl)-propoxy]-1,3,4,5-tetrahydro-benzo[d][1,3]diazepin-2-one], in data set [1], the pKi is 8.49.

In turn, `O=C1NCCc2ccc(OCCCN3CCN(c4cccc5ccc(F)cc45)CC3)cc2N1` [Example 44, 8-{3-[4-(7-Fluoro-naphthalen-1-yl)-piperazin-1-yl]-propoxy}-1,3,4,5-tetrahydro-benzo[d][1,3]diazepin-2-one] gave a negative logarithm of the Ki (pKi) in data set [1] of 8.26.

`O=C1NCCc2ccc(OCCCCN3CCN(c4cccc5c4COCC5)CC3)cc2N1` [Example 45, 8-[4-(4-Isochroman-8-yl-piperazin-1-yl)-butoxy]-1,3,4,5-tetrahydro-benzo[d][1,3]diazepin-2-one]: in data set [1], the pKi was 8.21. Turning to `CC1(C)CCC(=O)Nc2cc(OCCCN3CCN(c4cccc(Cl)c4Cl)CC3)ccc21` [Example 53, 8-{3-[4-(2,3-Dichlorophenyl)piperazin-1-yl]-propoxy}-5,5-dimethyl-1,3,4,5-tetrahydrobenzo[b]azepin-2-one], the melting point lay within 162 to 164 °C.

Turning to `CC1(C)CCC(=O)Nc2cc(OCCCCN3CCN(c4cccc(Cl)c4Cl)CC3)ccc21` [Example 54, 8-{4-[4-(2,3-Dichlorophenyl)piperazin-1-yl]-butoxy}-5,5-dimethyl-1,3,4,5-tetrahydrobenzo[b]azepin-2-one], the melting point is 106 to 108 °C. For `CC1(C)CCC(=O)Nc2cc(OCCCCCN3CCN(c4cccc(Cl)c4Cl)CC3)ccc21` [Example 55, 8-{5-[4-(2,3-Dichlorophenyl)piperazin-1-yl]-pentyloxy}-5,5-dimethyl-1,3,4,5-tetrahydrobenzo[b]azepin-2-one], the melting point was 128 to 130 °C. With `CC1(C)CCc2ccc(OCCCCN3CCN(c4cccc(Cl)c4Cl)CC3)cc2NC1=O` [Example 57, 8-{4-[4-(2,3-Dichlorophenyl)piperazin-1-yl]butoxy}-3,3-dimethyl-1,3,4,5-tetrahydrobenzo[b]azepin-2-one], the melting point lay within 110 to 112 °C. As to `CC1(C)Cc2ccc(OCCCCN3CCN(c4cccc5ccccc45)CC3)cc2NC(=O)N1` [Example 59, 4,4-Dimethyl-8-[4-(4-naphthalen-1-yl-piperazin-1-yl)-butoxy]-1,3,4,5-tetrahydro-benzo[d][1,3]diazepin-2-one], in data set [1], the pKi was 8.52.

Take `CC1(C)Cc2ccc(OCCCN3CCN(c4cccc5ccccc45)CC3)cc2NC(=O)N1` [Example 60, 4,4-Dimethyl-8-[3-(4-naphthalen-1-yl-piperazin-1-yl)-propoxy]-1,3,4,5-tetrahydro-benzo[d][1,3]diazepin-2-one]: the pKi in data set [1] was 8.03. As for `O=C1NCCc2ccc(/C=C/CCCN3CCN(c4cccc(Cl)c4Cl)CC3)cc2N1` [Example 64], the melting point lay in the range of 219 to 220 °C. In data set [1], this compound had a pKi of 8.02. Consider `O=C1NCCc2ccc(CCCCCN3CCN(c4cccc(Cl)c4Cl)CC3)cc2N1` [Example 65], for which the melting point was in the range of 159 to 161 °C. This compound also had a pKi in data set [1] of 8.35. For the compound `CC1(C)CNC(=O)Nc2cc(CCCCCN3CCN(c4cccc(Cl)c4Cl)CC3)ccc21` [Example 67, 8-{5-[4-(2,3-Dichlorophenyl)piperazin-1-yl]pentyl}-5,5-dimethyl-1,3,4,5-tetrahydro-benzo[d][1,3]diazepin-2-one Methanesulfonic Acid], the melting point was in the range of 215 to 218 °C. In data set [1], this compound had a pKi of 7.60. The compound `CC1(C)CCC(=O)Nc2cc(/C=C/CCCN3CCN(c4cccc(Cl)c4Cl)CC3)ccc21` [Example 69] yielded a melting point of 108 to 109 °C. In data set [1], this compound gave a pKi of 7.15. In the same order, the values of `CC1(C)CCC(=O)Nc2cc(CCCCCN3CCN(c4cccc(Cl)c4Cl)CC3)ccc21` [Example 70, 8-{5-[4-(2,3-Dichlorophenyl)piperazin-1-yl]pentyl}-5,5-dimethyl-1,3,4,5-tetrahydrobenzo[b]azepin-2-one Methanesulfonic Acid] are 168 to 170 °C and 7.25.

These data come from US20060234997A1, “Tetrahydro-pyridoazepin-8-ones and related compounds for the treatment of schizophrenia” (WARNER-LAMBERT COMPANY LLC, priority 2005, published 2006).
